# According to patent publication US20200165225A1, “BACE1 INHIBITORS FOR TREATMENT OF ALZHEIMER'S DISEASE” (NantBio, Inc., priority 2017, published 2020):
# Target: BACE-1 (Homo sapiens, UniProt P56817)
# Assay: Inhibition of BACE cleavage of a P5-P5′ fluorescent peptide substrate containing the Swedish mutation cleavage site
# Assay type: biochemical
# Details: fluorogenic P5-P5′ BACE-1 substrate; 30 minutes preincubation at room temperature; signal read every 30 minutes at 25° C. for 2 hr
# Protocol: The compounds were evaluated for inhibition of BACE cleavage of a P5-P5′ fluorescent peptide substrate containing the Swedish mutation cleavage site. In detail, 4 μL of assay buffer was added to each well, followed by 2 μL of BACE-1 diluted in assay buffer to 7.5 ng/uL. Then, 2 μL of compound, at concentrations along an 11 pt. two-fold dilution series starting at 10 uM, or 0.5 uM, were added to the appropriated wells and incubated for 30 minutes at room temperature. For all dilutions of inhibitor, the compound stock solutions of 10 mM in DMSO were diluted to 50 uM in water; subsequent dilutions were in 0.5% DMSO. Afterwards, 2 μL of fluorogenic P5-P5′ BACE-1 substrate, diluted to 50 μM in assay buffer, were added to each well, after which the signal generated was read every 30 minutes at 25° C. for 2 hr.
# Chain of BACE-1 (P56817 46-501): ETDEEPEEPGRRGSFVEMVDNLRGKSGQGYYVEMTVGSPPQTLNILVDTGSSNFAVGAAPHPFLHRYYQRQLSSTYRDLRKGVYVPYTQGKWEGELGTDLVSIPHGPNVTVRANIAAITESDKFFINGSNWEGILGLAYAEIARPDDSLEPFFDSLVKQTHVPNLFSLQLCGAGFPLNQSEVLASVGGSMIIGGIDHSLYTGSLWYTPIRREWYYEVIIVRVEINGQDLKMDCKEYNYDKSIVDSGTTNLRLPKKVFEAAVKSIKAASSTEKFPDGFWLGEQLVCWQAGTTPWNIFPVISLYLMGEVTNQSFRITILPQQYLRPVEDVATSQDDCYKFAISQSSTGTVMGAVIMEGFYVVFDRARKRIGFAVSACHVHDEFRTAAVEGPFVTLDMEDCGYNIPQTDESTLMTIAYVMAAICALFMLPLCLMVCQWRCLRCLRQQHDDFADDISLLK
row,Structure (SMILES),IC50
1,CN1C(=O)C(c2cccc(-c3cncnc3)c2)(c2ccnc(C(F)F)c2)N=C1N (centres unmarked) [Compound 1],30 nM
2,CN1C(=O)C(c2cccc(-c3cncnc3)c2)(c2ccnc(C(F)(F)F)c2)N=C1N (centres unmarked) [Compound 2],70 nM
3,Cc1cc(C2(c3ccnc(C(F)(F)F)c3)N=C(N)N(C)C2=O)ccc1OC(F)F (centres unmarked) [Compound 3],9720 nM
4,CN1C(=O)C(c2ccc(C(F)(F)F)nc2)(c2cccc(-c3cncnc3)c2)N=C1N (centres unmarked) [Compound 4],980 nM
5,CN1C(=O)C(c2cccc(-c3cncnc3)c2)(c2cccc(C(F)(F)F)n2)N=C1N (centres unmarked) [Compound 5],7860 nM

# The remaining lines, values ahead:
row,IC50,Structure (SMILES)
1,940 nM,CN1C(=O)C(c2ccc(C(F)F)nc2)(c2cccc(-c3cncnc3)c2)N=C1N (centres unmarked) [Compound 6]
2,500 nM,CN1C(=O)C(c2cccc(-c3cncnc3)c2)(c2cccc(C(F)F)n2)N=C1N (centres unmarked) [Compound 7]
3,170 nM,CN1C(=O)C(c2cccc(-c3cncnc3)c2)(c2cccc(C(F)F)c2)N=C1N (centres unmarked) [Compound 8]
